Measured values reported in ChEMBL document CHEMBL4229345, “Inhibition of trypanosome alternative oxidase without its N-terminal mitochondrial targeting signal (ΔMTS-TAO) by cationic and non-cationic 4-hydroxybenzoate and 4-alkoxybenzaldehyde derivatives active against T. brucei and T. congolense” (Eur J Med Chem, 2018).

Legend:
Trypanosoma congolense = assay: Anti-parasitic activity against bloodstream form of Trypanosoma congolense IL3000 after 48 hrs by resazurin-based assay; assay type: functional, organism-based; settings: IL3000, 48 h
[1] = Cytotoxicity against HFF cells assessed as reduction in cell viability after 30 hrs by resazurin-based assay; settings: human
[2] = tested on: Trypanosoma brucei brucei; assay: Resistance factor, ratio of EC50 for bloodstream trypomastigote stage of wild-type Trypanosoma brucei brucei Lister 427 in presence of 5 mM glycerol to EC50 for bloodstream trypomastigote stage of wild-type Trypanosoma brucei brucei Lister 427; assay type: functional
[3] = tested on: Trypanosoma brucei brucei; assay: Anti-parasitic activity against bloodstream trypomastigote stage of wild-type Trypanosoma brucei brucei Lister 427 after 48 hrs by resazurin-based assay; assay type: functional, organism-based; settings: Lister 427, 48 h
[4] = Inhibition of recombinant N-terminal His6 tagged SUMO-fused Trypanosoma brucei brucei TC221 TAO MTS deletion mutant expressed in Escherichia coli FN102 preincubated for 2 mins followed by ubiquinol-1 addition measured over 2 mins by double beam-dual wavelength UV-spectrophotometry
[5] = Selectivity index, ratio of CC50 for HFF cells to EC50 for bloodstream trypomastigote stage of wild-type Trypanosoma brucei brucei Lister 427; assay type: toxicity; settings: human, read-out: Ratio CC50/EC50
[6] = tested on: Trypanosoma brucei brucei; assay: Anti-parasitic activity against bloodstream trypomastigote stage of Trypanosoma brucei brucei with AQP2/3-dd knock out after 48 hrs by resazurin-based assay; assay type: functional, organism-based
[7] = tested on: Trypanosoma brucei brucei; assay: Resistance factor, ratio of EC50 for bloodstream trypomastigote stage of Trypanosoma brucei brucei with AQP2/3-dd knock out to EC50 for bloodstream trypomastigote stage of wild-type Trypanosoma brucei brucei Lister 427; assay type: functional
Trypanosoma brucei = assay: Anti-parasitic activity against bloodstream trypomastigote stage of pentamidine/diminazene/melaminophenyl arsenical resistant Trypanosoma brucei B48 after 48 hrs by resazurin-based assay; assay type: functional, organism-based; settings: B48, 48 h
[8] = tested on: Trypanosoma brucei brucei; assay: Anti-parasitic activity against bloodstream trypomastigote stage of wild-type Trypanosoma brucei brucei Lister 427 after 48 hrs in presence of 5 mM glycerol by resazurin-based assay; assay type: functional, organism-based; settings: Lister 427, 48 h
[9] = tested on: Trypanosoma brucei brucei; assay: Resistance factor, ratio of EC50 for bloodstream trypomastigote stage of Trypanosoma brucei brucei AQP triple knock out to EC50 for bloodstream trypomastigote stage of wild-type Trypanosoma brucei brucei Lister 427; assay type: functional
[10] = tested on: Trypanosoma brucei brucei; assay: Anti-parasitic activity against bloodstream trypomastigote stage of Trypanosoma brucei brucei with AQP triple knock out after 48 hrs by resazurin-based assay; assay type: functional, organism-based
[11] = Resistance factor, ratio of EC50 for bloodstream trypomastigote stage of pentamidine/diminazene/melaminophenyl arsenical resistant Trypanosoma brucei B48 to EC50 for bloodstream trypomastigote stage of wild-type Trypanosoma brucei brucei Lister 427; assay type: functional
[12] = Selectivity index, ratio of CC50 for HEK cells to EC50 for bloodstream trypomastigote stage of wild-type Trypanosoma brucei brucei Lister 427; assay type: toxicity; settings: human, read-out: Ratio CC50/EC50
[13] = Cytotoxicity against HEK cells assessed as reduction in cell viability after 30 hrs by resazurin-based assay; settings: human
[14] = Selectivity index, ratio of CC50 for HFF cells to EC50 for bloodstream form of Trypanosoma congolense IL3000; assay type: toxicity; settings: human, read-out: Ratio CC50/EC50

| SMILES | EC50 (Trypanosoma congolense) | CC50 at 30 h [1] | Ratio EC50 [2] | EC50 [3] | IC50 [4] | selectivity ratio [5] | EC50 [6] | Ratio EC50 [7] | EC50 (Trypanosoma brucei) | EC50 [8] | Ratio EC50 [9] | EC50 [10] | Ratio EC50 [11] | selectivity ratio [12] | CC50 at 30 h [13] | selectivity ratio [14] |
| --- | --- | --- | --- | --- | --- | --- | --- | --- | --- | --- | --- | --- | --- | --- | --- | --- |
| O=C(OCCCCCCCCCCCCCCBr)c1ccc(O)cc1F | > 50 µM | > 200 µM | 0.49 | 14.7 µM | 0.03 µM | > 13 | 6.8 µM | 0.46 | 17.3 µM | 7.19 µM | 0.48 | 7 µM | 1.2 |  |  |  |
| O=C(OCCCCCCCCCCCCCCCCOC(=O)c1ccc(O)cc1O)c1ccc(O)cc1O | > 100 µM |  | 0.46 | 26.7 µM | 0.0123 µM |  | 14.3 µM | 0.54 | 31.9 µM | 12.4 µM | 0.35 | 9.3 µM | 1.2 | > 15 | > 400 µM |  |
| O=COCCCCCCCCCCCCCCOc1ccc(C=O)c(O)c1 |  | > 200 µM | 0.48 | 3.8 µM | 0.33 µM | > 52 | 1.4 µM | 0.38 | 3.6 µM | 1.8 µM | 0.48 | 1.82 µM | 1 |  |  |  |
| Cc1cc(O)cc(O)c1C(=O)OCCCCCCCCCCCCCCBr | > 100 µM | > 200 µM | 0.53 | 14.6 µM | 0.007 µM | > 13 | 7.3 µM | 0.5 | 15.6 µM | 7.71 µM | 0.47 | 6.8 µM | 1.1 |  |  |  |
| O=Cc1ccc(OCCCCCCCCCCCCCCBr)cc1O | 42.6 µM | > 200 µM | 0.61 | 17.6 µM | 0.073 µM | > 11 | 8.4 µM | 0.48 | 15.5 µM | 10.7 µM | 0.45 | 7.9 µM | 0.9 |  |  | > 4.6 |
| O=C(NO)c1ccccc1O [SALICYLHYDROXAMIC ACID] |  |  |  |  |  |  | 31.9 µM |  |  |  |  | 8.9 µM |  |  |  |  |
| Cc1cc(O)ccc1C(=O)OCCCCCCCCCCCCCCBr |  | > 200 µM | 0.52 | 14.4 µM | 0.007 µM | > 13 | 7.1 µM | 0.49 | 14.4 µM | 7.5 µM | 0.5 | 7.2 µM | 1 |  |  |  |
| O=C(OCCCCCCCCCCCCCCCCBr)c1ccc(O)cc1O |  |  | 0.24 |  | 0.0124 µM |  | 14.5 µM | 0.32 |  | 11.1 µM | 0.11 | 5.1 µM | 1.07 | > 8 | > 400 µM |  |
| Cc1cc(O)cc(O)c1C(=O)O [ORSELLINIC ACID] |  |  |  |  | 143 µM |  |  |  |  |  |  |  |  |  |  |  |
| O=Cc1ccc(OCCCCCCCCCCCCCCOc2ccc(C=O)c(O)c2)cc1O | 400 µM | > 200 µM |  | 400 µM | 0.24 µM |  | 400 µM |  | 400 µM | 400 µM |  | 400 µM |  |  |  |  |
| N=C(N)c1ccc(/N=N/Nc2ccc(C(=N)N)cc2)cc1 [DIMINAZENE] | 0.2 µM |  |  |  |  |  |  |  |  |  |  |  | 12 |  |  |  |
| O=C(O)c1ccc(O)cc1F |  |  |  |  | 115 µM |  |  |  |  |  |  |  |  |  |  |  |
| O=C(OCCCCCCBr)c1ccc(O)cc1O | 72.9 µM | > 200 µM | 0.68 | 17.7 µM | 0.24 µM | > 11 | 11.6 µM | 0.65 | 20.5 µM | 12.1 µM | 0.68 | 12.1 µM | 1.2 |  |  | > 2.7 |
| O=C(OCCCCCCCCCCCCCCCC[P+](c1ccccc1)(c1ccccc1)c1ccccc1)c1ccc(O)cc1O |  |  |  |  | > 5 µM |  |  |  |  |  |  |  |  |  |  |  |
| O=C(OCCCCCCCCCCCCCCBr)c1ccc(O)cc1O |  |  |  |  | 0.0108 µM |  |  |  |  |  |  |  |  |  |  |  |
| Cc1cc(O)ccc1C(=O)O |  |  |  |  | 112 µM |  |  |  |  |  |  |  |  |  |  |  |
| O=C(OCCCCCCCCCCCCCC[P+](c1ccccc1)(c1ccccc1)c1ccccc1)c1ccc(O)cc1O |  |  |  |  | 1.46 µM |  |  |  |  |  |  |  |  |  |  |  |
| O=COCCCCCCCCCCOC(=O)c1ccc(O)cc1O |  |  | 0.55 |  | 0.15 µM |  | 27.4 µM | 0.86 |  | 17.5 µM | 0.49 | 15.6 µM | 0.69 | > 12 | > 400 µM |  |
| O=C(O)c1ccc(O)cc1O [2,4-DIHYDROXYBENZOIC ACID] |  |  |  |  | 116 µM |  |  |  |  |  | 0.96 | 16.6 µM |  |  |  |  |
| O=C(OCCCCBr)c1ccc(O)cc1O |  | > 200 µM |  | 400 µM | 0.45 µM |  | 400 µM |  | 400 µM | 400 µM |  | 400 µM |  |  |  |  |
| O=C(OCCCCCCCCCCCCCCCC[n+]1cccc2ccccc21)c1ccc(O)cc1O |  |  |  |  | > 5 µM |  |  |  |  |  |  |  |  |  |  |  |
| Cc1cc(O)ccc1C(=O)OCCCCCCCCCCCCCCOC(=O)c1ccc(O)cc1C | 400 µM | > 200 µM |  | 400 µM | 0.013 µM |  | 400 µM |  | 400 µM | 400 µM |  | 400 µM |  |  |  |  |
| N=C(N)c1ccc(OCCCCCOc2ccc(C(=N)N)cc2)cc1 [PENTAMIDINE] |  |  | 1.14 | 0.0033 µM |  |  | 0.047 µM | 14.1 |  |  | 19.2 | 0.064 µM | 285 |  |  |  |
| O=Cc1ccc(OCCCCCCCCCCCCCC[n+]2cccc3ccccc32)cc1O.[Br-] | 2.1 µM | > 200 µM | 0.7 | 1.75 µM | 1.23 µM | > 114 | 0.95 µM | 0.54 | 2.35 µM | 1.23 µM | 0.62 | 1.08 µM | 1.3 |  |  | > 95 |
